Our source for the inhibition of growth values is ChEMBL document CHEMBL3112450, “Synthesis and in vitro antitumor evaluation of primary amine substituted quinazoline linked benzimidazole” (Bioorg Med Chem Lett, 2014).

Format in all cases: functional
One assay relates to SNB-19. As to the kind of experiment: Cytotoxicity against human SNB19 cells assessed as growth inhibition at 10 uM after 48 hrs by SRB assay. The following applies: SNB-19, 48 h, read-out: GI. (The SRB assay estimates cell density from bound dye.)
For the next assay, the system named is NCI-H226. As to the kind of experiment: Cytotoxicity against human NCI-H226 cells assessed as growth inhibition at 10 uM after 48 hrs by SRB assay. As to conditions: NCI-H226, 48 h, read-out: GI.
Assay [1] in a line: Cytotoxicity against human EKVX cells assessed as growth inhibition at 10 uM after 48 hrs by SRB assay. As to conditions: read-out: GI.
The subject of another assay is SF-295. The assay is described as follows: Cytotoxicity against human SF295 cells assessed as growth inhibition at 10 uM after 48 hrs by SRB assay. As to conditions: SF-295, 48 h, read-out: GI.
Another assay concerns MDA-MB-435. The assay is described as follows: Cytotoxicity against human MDA-MB-435 cells assessed as growth inhibition at 10 uM after 48 hrs by SRB assay. The following applies: MDA-MB-435, 48 h, read-out: GI.
The test system of another assay is A549. The assay is described as follows: Cytotoxicity against human A549 cells assessed as growth inhibition at 10 uM after 48 hrs by SRB assay. As to conditions: A549, 48 h, read-out: GI.
Another assay has as its system IGROV-1. The assay is described as follows: Cytotoxicity against human IGROV1 cells assessed as growth inhibition at 10 uM after 48 hrs by SRB assay. As to conditions: IGROV-1, 48 h, read-out: GI.
Another assay has as its system SNB-75. As to the kind of experiment: Cytotoxicity against human SNB75 cells assessed as growth inhibition at 10 uM after 48 hrs by SRB assay. The following applies: SNB-75, 48 h, read-out: GI.
The next assay has as its system SF-268. The assay is described as follows: Cytotoxicity against human SF268 cells assessed as growth inhibition at 10 uM after 48 hrs by SRB assay. As to conditions: SF-268, 48 h, read-out: GI.
For a further assay, the system named is NCI-H522. As to the kind of experiment: Cytotoxicity against human NCI-H522 cells assessed as growth inhibition at 10 uM after 48 hrs by SRB assay. As to conditions: NCI-H522, 48 h, read-out: GI.
The test system of another assay is OVCAR-3. The assay is described as follows: Cytotoxicity against human OVCAR3 cells assessed as growth inhibition at 10 uM after 48 hrs by SRB assay. As to conditions: OVCAR-3, 48 h, read-out: GI.
The next assay deals with SK-MEL-2. As to the kind of experiment: Cytotoxicity against human SK-MEL-2 cells assessed as growth inhibition at 10 uM after 48 hrs by SRB assay. The following applies: SK-MEL-2, 48 h, read-out: GI.
A further assay concerns SN12C. The assay is described as follows: Cytotoxicity against human SN12C cells assessed as growth inhibition at 10 uM after 48 hrs by SRB assay. As to conditions: read-out: GI.
The test system of the next assay is U-251. The assay is described as follows: Cytotoxicity against human U251 cells assessed as growth inhibition at 10 uM after 48 hrs by SRB assay. The following applies: U-251, 48 h, read-out: GI.
The test system of a further assay is CAKI-1. As to the kind of experiment: Cytotoxicity against human Caki1 cells assessed as growth inhibition at 10 uM after 48 hrs by SRB assay. As to conditions: CAKI-1, 48 h, read-out: GI.
The next assay deals with MOLT-4. As to the kind of experiment: Cytotoxicity against human MOLT4 cells assessed as growth inhibition at 10 uM after 48 hrs by SRB assay. The following applies: MOLT-4, 48 h, read-out: GI.

`C=CCn1c(C)nc2ccc(Nc3nc(Nc4ccc5nc(C)n(CC=C)c5c4)c4ccccc4n3)cc21`: the values for the inhibition of growth at 10 µM (with SNB-19; with NCI-H226; in assay [1]) were 50%, 30% and 90%, respectively.

On to `C=CCn1c(C)nc2ccc(Nc3nc(Nc4ccc(F)cc4)nc4ccccc34)cc21`, for which the inhibition of growth at 10 µM with SF-295 is 50%; with MDA-MB-435 it was 40%; with A549, 40%; with IGROV-1, 40%; in the assay with SNB-75, 40%; in the assay on SF-268 it was 30%. Moreover, the inhibition of growth at 10 µM with NCI-H522 was determined as 40%; in the assay with OVCAR-3, 40%; with SK-MEL-2 it was 40%; in the assay with SN12C it was 30%; in the assay on U-251, 40%; in the assay on CAKI-1, 40%.

As to `C=CCn1c(C)nc2cc(Nc3nc(NCCO)nc4ccccc34)ccc21`, in the assay with MOLT-4, the inhibition of growth at 10 µM is 40%.
